± gives the expanded uncertainty stated by the source.
Experiment: Molar enthalpy of transition or fusion
Settings: Crystal; Adiabatic calorimetry

SMILES: CCC [propane]
- Molar enthalpy of transition or fusion: 0.838 ± 0.00956 kcal/mol
